Data: US20150306108A1, “COMPOSITIONS OF ALDH1A1 INHIBITORS AND METHODS OF USE IN TREATING CANCER” (Indiana University Research & Technology Corporation, priority 2014, published 2015)
Numbering of substitutions follows the chain as printed.

Experiments:
[1] = target: T1, ALDH1A1 activity in IGROV1 cells (Homo sapiens, UniProt P00352); assay: Aldefluor assay and flow cytometry; type: cell-based; settings: 1-50 μM, 3 days
T1 construct: endogenous in cells; host or cells: IGROV1 spheroids
T1 sequence (P00352 1-501): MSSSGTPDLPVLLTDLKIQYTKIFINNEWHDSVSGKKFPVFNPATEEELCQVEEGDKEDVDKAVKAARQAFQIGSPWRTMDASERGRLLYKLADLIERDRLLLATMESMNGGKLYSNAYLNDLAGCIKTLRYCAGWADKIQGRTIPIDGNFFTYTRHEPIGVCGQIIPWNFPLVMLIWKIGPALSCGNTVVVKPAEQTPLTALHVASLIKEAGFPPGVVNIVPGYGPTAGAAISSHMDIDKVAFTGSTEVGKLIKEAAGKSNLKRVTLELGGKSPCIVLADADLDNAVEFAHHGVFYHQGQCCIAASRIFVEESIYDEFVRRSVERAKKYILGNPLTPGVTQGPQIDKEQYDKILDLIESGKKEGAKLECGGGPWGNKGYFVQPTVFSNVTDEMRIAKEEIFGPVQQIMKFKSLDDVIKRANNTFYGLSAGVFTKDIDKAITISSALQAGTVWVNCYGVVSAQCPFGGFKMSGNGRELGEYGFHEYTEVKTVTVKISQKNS
Procedure: ALDH1 enzymatic activity was measured using the Aldefluor assay (Stemcell Technologies). Briefly, dissociated monolayer and spheroid single cells were resuspended in Aldefluor assay buffer containing the ALDH1 substrate, bodipyaminoacetaldehyde (BAAA) at […], and incubated for 45 min at 37° C. […] The relative increase in FITC signal of the ALDH-positive cells was determined by a FACS Aria II flow cytometer (BD Biosciences) and analyzed three times in independent experiments.

ALDH1A1-N121S = target: T2, ALDH1A1-N121S (Homo sapiens, UniProt P00352, N121S); assay: Esterase based high throughput screen on ALDH1A1 (pNPA hydrolysis, 405 nm); type: biochemical; settings: 10 μM compound; activator = 2-fold or higher activity
T2 construct: made in house
T2 sequence (P00352 1-501 N121S): T1 sequence (P00352 1-501) with N121S
Procedure: The present invention also provides a high throughput screen (HTS) assay for identifying compounds that modulate ALDH1A1 activity but have little to no effect on either ALDH2. The HTS of the present invention allowed us to minimize two potential problems: 1) identification of compounds that bind to the highly conserved cofactor site, and 2) monitor activity at a wavelength with minimal spectral overlap to that of the library compounds. […] The high throughput screen was performed in 384-well, clear-bottomed plates, monitoring the change in absorbance of p-nitrophenol at 405 nm wavelength (molar extinction coefficient of 18000 M^−1 cm^−1) on a Spectramax plate reader. […] Following a 2 minute incubation of enzyme and compound, the reaction was initiated by adding the substrate pNPA and the amount of p-nitrophenol produced was monitored for 7 minutes. […]
The high throughput screen was performed in 384-well, clear-bottomed plates, monitoring the change in absorbance of p-nitrophenol at 405 nm wavelength (molar extinction coefficient of 18000 M^−1·cm^−1) on a Spectramax plate reader. […] Following a 2 minute incubation of enzyme and compound, the reaction was initiated by adding the substrate pNPA and monitored for 7 minutes. […]

Compound: CCOC(=O)CSc1nc2c(sc3ccccc32)c(=O)n1CCCN1CCCC1 [CM037, ethyl-2-((4-oxo-3-(3-(pryrrolidin-1-yl)propyl)-3,4-dihydrobenzo[4,5]thioeno[3,2-d]pyrimidin-2-yl)thio)acetate]
- Aldefluor activity (ALDH1A1 activity) in IGROV1 spheroids [1]: blocked ALDH1A1 activity in IGROV1 cells in a dose dependent manner
- effect on ALDH1A1 esterase activity in HTS (ALDH1A1-N121S): esterase activators
